Experimental data reported in patent publication US20250296960A1, “PEPTIDE COMPOSITIONS AND METHODS OF USE THEREOF” (priority 2022, published 2025).
“Also recorded” adds a separate entry of the source. Like-named read-outs stand apart in the source and are kept apart here. Numbered stars: 1 amine (or outer) side, 2 acyl side, 3 side chain; on linkers, the order of the positions; unused ones are H or OH. Square brackets hold non-standard residues; d marks the D form. Side chains are listed from the residue outwards. Peptide text beside a SMILES is read from it. * marks the point of attachment. C18 diacid = O=C(O)CCCCCCCCCCCCCCCCC(=O)*; γGlu = O=C(O)[C@H](CCC(=O)[*:2])N[*:1]; αMeR = C[C@](N)(CCCNC(=N)N)C(=O)O; AEEA = NCCOCCOCC(=O)O; Aib = CC(C)(N)C(=O)O

Legend:
[1] = biological target: human glucose-dependent insulinotropic polypeptide receptor (GIPR), expressed on CHO-K1 cells (human) (UniProt P48546); assay: cell-based or functional assay
[2] = biological target: human glucose-dependent insulinotropic polypeptide receptor (GIPR), expressed on CHO-K1 cells (human) (UniProt P48546); assay: cell-based or functional assay; remark: listed apart in the source
[3] = biological target: T1, human GLP-1R (Homo sapiens, UniProt P43220); assay: cAMP assay (HitHunter cAMP) in GLP-1R-expressing CHO-K1 cells (GLP-1R+ cells); format: cell-based; settings: for activity on GLP-1R compared to SEQ ID NO. 77, in words: Example 13; for Ratio vs. GLP-1R, GLP-1R / Relative % to native ligand, GLP-1R: Table 36
T1 construct: host or cells: CHO-K1
T1 sequence (P43220 24-463): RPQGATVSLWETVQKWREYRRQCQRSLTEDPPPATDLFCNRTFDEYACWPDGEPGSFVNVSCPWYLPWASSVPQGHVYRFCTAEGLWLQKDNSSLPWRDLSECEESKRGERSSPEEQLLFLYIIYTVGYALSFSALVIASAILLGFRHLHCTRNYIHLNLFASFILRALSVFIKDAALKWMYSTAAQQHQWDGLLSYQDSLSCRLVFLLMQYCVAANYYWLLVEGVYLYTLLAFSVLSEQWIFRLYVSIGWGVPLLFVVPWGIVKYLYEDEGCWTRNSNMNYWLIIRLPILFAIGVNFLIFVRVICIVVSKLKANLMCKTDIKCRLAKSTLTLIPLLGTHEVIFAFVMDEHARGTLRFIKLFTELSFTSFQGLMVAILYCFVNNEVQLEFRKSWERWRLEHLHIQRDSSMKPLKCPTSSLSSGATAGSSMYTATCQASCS
Method in brief: (§1)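 Luminescent cAMP read-out: after 30 min peptide stimulation at 37 °C in cAMP assay buffer, receptor-expressing CHO-K1 cells (seeded 7×10^3/well the night before) received antibody and detection reagents for 1 h, then Solution A for 3 h, at room temperature in the dark.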

[4] = biological target: T2, human GCGR (Homo sapiens, UniProt P47871); assay: cAMP assay (HitHunter cAMP) in GCGR-expressing CHO-K1 cells (GCGR+ cells); format: cell-based; settings: Table 36
T2 construct: host or cells: CHO-K1
T2 sequence (P47871 26-477): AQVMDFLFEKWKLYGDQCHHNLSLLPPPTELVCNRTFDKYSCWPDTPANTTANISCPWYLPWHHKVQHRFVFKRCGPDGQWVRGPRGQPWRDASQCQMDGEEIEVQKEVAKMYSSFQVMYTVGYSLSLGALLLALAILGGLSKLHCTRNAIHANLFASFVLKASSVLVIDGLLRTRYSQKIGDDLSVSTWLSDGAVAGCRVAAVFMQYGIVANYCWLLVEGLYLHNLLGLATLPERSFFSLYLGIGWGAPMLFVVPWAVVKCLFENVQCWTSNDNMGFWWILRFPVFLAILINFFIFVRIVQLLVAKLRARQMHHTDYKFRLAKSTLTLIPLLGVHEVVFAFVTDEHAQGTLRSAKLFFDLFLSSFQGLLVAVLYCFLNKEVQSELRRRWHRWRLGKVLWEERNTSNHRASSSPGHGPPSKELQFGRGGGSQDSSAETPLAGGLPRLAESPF
Method in brief: as §1

[5] = biological target: T3, human GIPR (Homo sapiens, UniProt P48546); assay: cAMP assay (HitHunter cAMP) in GIPR-expressing CHO-K1 cells (GIPR+ cells); format: cell-based; settings: for Ratio vs. GLP-1R, GIPR / Relative % to native ligand, GIPR: Table 36
T3 construct: host or cells: CHO-K1
T3 sequence (P48546 22-466): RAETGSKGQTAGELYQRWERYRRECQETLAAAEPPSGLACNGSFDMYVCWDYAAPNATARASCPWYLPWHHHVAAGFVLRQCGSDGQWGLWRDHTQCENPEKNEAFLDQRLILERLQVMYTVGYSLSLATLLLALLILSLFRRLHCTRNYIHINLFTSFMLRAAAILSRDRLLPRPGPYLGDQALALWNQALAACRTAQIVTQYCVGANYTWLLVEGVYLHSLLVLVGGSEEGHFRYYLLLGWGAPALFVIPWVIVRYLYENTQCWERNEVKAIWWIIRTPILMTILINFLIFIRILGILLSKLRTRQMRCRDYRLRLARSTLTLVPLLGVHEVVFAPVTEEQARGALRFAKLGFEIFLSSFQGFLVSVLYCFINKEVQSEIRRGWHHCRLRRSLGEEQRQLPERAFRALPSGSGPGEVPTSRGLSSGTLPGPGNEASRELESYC
Method in brief: as §1

[6] = In vitro enzymatic stability against FaSSIF/P (pancreatin in FaSSIF, pH 6.5); format: in vitro ADME; settings: simulated gi fluid, pH 6.5, Half-life (min), FaSSIF/P
[7] = format: in vitro ADME; settings: pH 7.8
Experimental: (§2) For the stability against trypsin, the test samples were prepared by mixing stock solutions of peptide and trypsin dissolved in 50 mM PBS (pH 7.8) containing 0.02% PS80 in a weight ratio of 10:1. The test samples were incubated at 37° C. for 180 min. The sampling from test samples was proceeded at the predetermined time points (10, 30, 60, 90, 120, and 180 min) and stopped by 10% TFA solution.
(§3) Analytical HPLC was performed to determine the remaining amount on an ACQUITY Premier system (Waters, USA) with an ACQUITY CSH C18 column (Waters, USA) at 35° C. using 0.1% TFA in water and acetonitrile. The remaining amount was determined as a percentage of the peak area at the sampling time point relative to the peak area of the initial sample.

[8] = tested on: trypsin; format: in vitro ADME
Experimental: as §2, §3

[9] = tested on: FaSSIF/P; assay: In vitro enzymatic stability against FaSSIF/P (pancreatin in FaSSIF, pH 6.5); format: in vitro ADME
[10] = In vivo efficacy in CDA-HFD (NASH) mice, 4 weeks; settings: Example 16
Experimental: This study was conducted to evaluate the efficacy of SEQ ID NOs. […] SEQ ID NOs. The peptides were delivered at 0.02% PS80 in PBS and dosing volume was 10 mL/kg. Control group was administered by vehicle without peptide.
Body weight changes were monitored Q2D; serum chemistry (end); hepatic TG (end); and histological analysis (end). […]

[11] = In vivo efficacy in mAMLN (obese and NASH) mice, 4 weeks; settings: after 4 weeks

GIP (native ligand) (from UniProt P09681 52-93)
EC50 (nM), cAMP assay [1]: 2.03 nM | EC50 (nM), cAMP assay [2]: 0.732 nM | EC50, c-AMP release (FIG. 8C) [2]: 0.24 nM | EC50, c-AMP release (FIG. 9C) [2]: 0.24 nM | EC50, cAMP release (FIG. 7C) [2]: 1.78 nM | Percentage change in EC50 relative to GIP at human GIPR (%) [2]: 100%

CSCC[C@H](NC(=O)[C@H](Cc1ccc(O)cc1)NC(=O)[C@H](CC(=O)O)NC(=O)[C@H](CC(C)C)NC(=O)[C@H](CC(C)C)NC(=O)[C@H](CCCCNC(=O)COCCOCCNC(=O)COCCOCCNC(=O)CC[C@H](NC(=O)CCCCCCCCCCCCCCCCC(=O)O)C(=O)O)NC(=O)[C@H](CO)NC(=O)[C@H](Cc1ccc(O)cc1)NC(=O)[C@H](CC(=O)O)NC(=O)[C@H](CO)NC(=O)[C@@H](NC(=O)[C@H](Cc1ccccc1)NC(=O)[C@@H](NC(=O)CNC(=O)[C@H](CCC(N)=O)NC(=O)C(C)(C)NC(=O)[C@@H](N)Cc1ccc(O)cc1)[C@@H](C)O)[C@@H](C)O)C(=O)N[C@@H](CCSC)C(=O)N[C@@H](CCC(N)=O)C(=O)N[C@@H](Cc1c[nH]cn1)C(=O)N[C@@H](CC(=O)O)C(=O)N[C@@H](Cc1ccccc1)C(=O)N[C@H](C(=O)N[C@@H](CCC(N)=O)C(=O)N[C@@H](Cc1c[nH]c2ccccc12)C(=O)N[C@@H](CC(C)C)C(=O)N[C@@H](CC(C)C)C(=O)N[C@@H](CCC(=O)O)C(=O)NCC(=O)NCC(=O)N1CCC[C@H]1C(=O)N[C@@H](CO)C(=O)N[C@@H](CO)C(=O)NCC(=O)N[C@@H](C)C(=O)N1CCC[C@H]1C(=O)N1CCC[C@H]1C(=O)N1CCC[C@H]1C(=O)N[C@@H](CO)C(N)=O)C(C)C [compound 99] (H-Y[Aib]QGTFTSDYSK([AEEA-AEEA-γGlu-C18 diacid])LLDYMMQHDFVQWLLEGGPSSGAPPPS-NH2; N-terminus assumed)
activity on GLP-1R compared to SEQ ID NO. 77, in words [3]: slightly decreased | Ratio vs. GLP-1R, GLP-1R [3]: 100 | Relative % to native ligand, GLP-1R [3]: 35% | Ratio vs. GLP-1R, GCGR [4]: 80 | Relative % to native ligand, GCGR [4]: 28% | Ratio vs. GLP-1R, GIPR [5]: 3237 | Relative % to native ligand, GIPR [5]: 1132% | half-life [6]: 0.632 h | half-life [7]: > 7.23 h | stability against trypsin compared with SEQ ID NO. 77, in words [8]: increased half-lives

CSCC[C@H](NC(=O)[C@H](Cc1ccc(O)cc1)NC(=O)[C@H](CC(=O)O)NC(=O)[C@H](CC(C)C)NC(=O)[C@H](CC(C)C)NC(=O)[C@H](CCCCNC(=O)COCCOCCNC(=O)COCCOCCNC(=O)CC[C@H](NC(=O)CCCCCCCCCCCCCCCCC(=O)O)C(=O)O)NC(=O)[C@H](CO)NC(=O)[C@H](Cc1ccc(O)cc1)NC(=O)[C@H](CC(=O)O)NC(=O)[C@H](CO)NC(=O)[C@@H](NC(=O)[C@H](Cc1ccccc1)NC(=O)[C@@H](NC(=O)CNC(=O)[C@H](CCC(N)=O)NC(=O)C(C)(C)NC(=O)[C@@H](N)Cc1ccc(O)cc1)[C@@H](C)O)[C@@H](C)O)C(=O)N[C@@H](CCSC)C(=O)N[C@@H](CCC(N)=O)C(=O)N[C@@](C)(CCCNC(=N)N)C(=O)N[C@@H](CC(=O)O)C(=O)N[C@@H](Cc1ccccc1)C(=O)N[C@H](C(=O)N[C@@H](CCC(N)=O)C(=O)N[C@@H](Cc1c[nH]c2ccccc12)C(=O)N[C@@H](CC(C)C)C(=O)N[C@@H](CC(C)C)C(=O)N[C@@H](CCC(=O)O)C(=O)NCC(=O)NCC(=O)N1CCC[C@H]1C(=O)N[C@@H](CO)C(=O)N[C@@H](CO)C(=O)NCC(=O)N[C@@H](C)C(=O)N1CCC[C@H]1C(=O)N1CCC[C@H]1C(=O)N1CCC[C@H]1C(=O)N[C@@H](CO)C(N)=O)C(C)C [compound 101] (H-Y[Aib]QGTFTSDYSK([AEEA-AEEA-γGlu-C18 diacid])LLDYMMQ[αMeR]DFVQWLLEGGPSSGAPPPS-NH2; N-terminus assumed)
activity on GLP-1R compared to SEQ ID NO. 77, in words [3]: increased | Ratio vs. GLP-1R, GLP-1R [3]: 100 | Relative % to native ligand, GLP-1R [3]: 722% | Ratio vs. GLP-1R, GCGR [4]: 12 | Relative % to native ligand, GCGR [4]: 89% | activity on GIPR compared to SEQ ID NO. 77, in words ([5]; Example 13): increased | Ratio vs. GLP-1R, GIPR [5]: 65 | Relative % to native ligand, GIPR [5]: 472% | half-life [6]: 1.18 h | stability against FaSSIF/P compared with SEQ ID NO. 77, in words [9]: improved stability | half-life [7]: > 7.23 h | stability against trypsin compared with SEQ ID NO. 77, in words [8]: improved stability | efficacy in the NASH model, in words [10]: most excellent efficacy | hepatic steatosis score compared to CDA-HFD control, in words [10]: significantly reduced | scores of hepatocytes inflammation and NAS score, in words [10]: statistically reduced; also recorded: most decreased | body weight compared to vehicle-treated control, in words ([10]; 20 nmol/kg s.c. Q2D, 4 weeks): reduce body weight; also recorded: greatest weight loss | liver enzymes and liver steatosis compared to vehicle-treated control, in words ([10]; end of treatment): reduce liver enzymes and liver steatosis significantly | NAS score, in words [11]: statistically decreased more than the level of tirzepatide | hepatic steatosis (histological score), in words [11]: significantly reduced | liver weight, visceral fat weight, liver enzymes, and liver steatosis compared to vehicle-treated control, in words [11]: significantly reduced
